Activity calls are given as the source filed them. How the calls were made is not given here.
Tested on: CCRIS mutagenicity, Ames/micronucleus/aberration tests
Experiment: CCRIS mutagenicity studies
[1] = Test System: AMES SALMONELLA TYPHIMURIUM, Strain/Indicator: TA98, Metabolic Activation: NONE, Method: PREINCUBATION
[2] = Test System: AMES SALMONELLA TYPHIMURIUM, Strain/Indicator: TA100, Metabolic Activation: NONE, Method: PREINCUBATION
[3] = Test System: AMES SALMONELLA TYPHIMURIUM, Strain/Indicator: TA102, Metabolic Activation: NONE, Method: PREINCUBATION
[4] = Test System: AMES SALMONELLA TYPHIMURIUM, Strain/Indicator: TA104, Metabolic Activation: NONE, Method: PREINCUBATION
[5] = Test System: AMES SALMONELLA TYPHIMURIUM, Strain/Indicator: TA98, Metabolic Activation: NONE, Method: STANDARD PLATE
[6] = Test System: AMES SALMONELLA TYPHIMURIUM, Strain/Indicator: TA100, Metabolic Activation: NONE, Method: STANDARD PLATE
[7] = Test System: AMES SALMONELLA TYPHIMURIUM, Strain/Indicator: TA1535, Metabolic Activation: NONE, Method: STANDARD PLATE
[8] = Test System: AMES SALMONELLA TYPHIMURIUM, Strain/Indicator: TA1537, Metabolic Activation: NONE, Method: STANDARD PLATE
[9] = Test System: AMES SALMONELLA TYPHIMURIUM, Strain/Indicator: TA1538, Metabolic Activation: NONE, Method: STANDARD PLATE

Question: What does the source list for `O=C(O)c1ccc2c(c1)C(=O)OC2=O`?
Answer: mutagenic call (Test System: AMES SALMONELLA TYPHIMURIUM, Strain/Indicator: TA98, Metabolic Activation: HAMSTER, LIVER, S-9, AROCLOR 1254 (10%), Method: PREINCUBATION): inactive; negative; mutagenic call [1]: inactive; negative; mutagenic call (Test System: AMES SALMONELLA TYPHIMURIUM, Strain/Indicator: TA98, Metabolic Activation: RAT LIVER S-9, PHENOBARBITAL AND BETA-NAPHTHOFLAVONE, Method: PREINCUBATION): inactive; negative; mutagenic call (Test System: AMES SALMONELLA TYPHIMURIUM, Strain/Indicator: TA98, Metabolic Activation: RAT, LIVER, S-9, AROCLOR 1254 (10%), Method: PREINCUBATION): inactive; negative; mutagenic call (Test System: AMES SALMONELLA TYPHIMURIUM, Strain/Indicator: TA100, Metabolic Activation: HAMSTER, LIVER, S-9, AROCLOR 1254 (10%), Method: PREINCUBATION): inactive; negative; mutagenic call [2]: inactive; negative; mutagenic call (Test System: AMES SALMONELLA TYPHIMURIUM, Strain/Indicator: TA100, Metabolic Activation: RAT LIVER S-9, PHENOBARBITAL AND BETA-NAPHTHOFLAVONE, Method: PREINCUBATION): inactive; negative; mutagenic call (Test System: AMES SALMONELLA TYPHIMURIUM, Strain/Indicator: TA100, Metabolic Activation: RAT, LIVER, S-9, AROCLOR 1254 (10%), Method: PREINCUBATION): inactive; negative; mutagenic call [3]: inactive; negative; mutagenic call (Test System: AMES SALMONELLA TYPHIMURIUM, Strain/Indicator: TA102, Metabolic Activation: RAT LIVER S-9, PHENOBARBITAL AND BETA-NAPHTHOFLAVONE, Method: PREINCUBATION): inactive; negative; mutagenic call [4]: inactive; negative; mutagenic call (Test System: AMES SALMONELLA TYPHIMURIUM, Strain/Indicator: TA104, Metabolic Activation: RAT LIVER S-9, PHENOBARBITAL AND BETA-NAPHTHOFLAVONE, Method: PREINCUBATION): inactive; negative; mutagenic call (Test System: AMES SALMONELLA TYPHIMURIUM, Strain/Indicator: TA1535, Metabolic Activation: HAMSTER, LIVER, S-9, AROCLOR 1254 (10%), Method: PREINCUBATION): inactive; negative; mutagenic call (Test System: AMES SALMONELLA TYPHIMURIUM, Strain/Indicator: TA1535, Metabolic Activation: NONE, Method: PREINCUBATION): inactive; negative; mutagenic call (Test System: AMES SALMONELLA TYPHIMURIUM, Strain/Indicator: TA1535, Metabolic Activation: RAT LIVER S-9, PHENOBARBITAL AND BETA-NAPHTHOFLAVONE, Method: PREINCUBATION): inactive; negative; mutagenic call (Test System: AMES SALMONELLA TYPHIMURIUM, Strain/Indicator: TA1535, Metabolic Activation: RAT, LIVER, S-9, AROCLOR 1254 (10%), Method: PREINCUBATION): inactive; negative; mutagenic call (Test System: AMES SALMONELLA TYPHIMURIUM, Strain/Indicator: TA1537, Metabolic Activation: HAMSTER, LIVER, S-9, AROCLOR 1254 (10%), Method: PREINCUBATION): inactive; negative; mutagenic call (Test System: AMES SALMONELLA TYPHIMURIUM, Strain/Indicator: TA1537, Metabolic Activation: NONE, Method: PREINCUBATION): inactive; negative; mutagenic call (Test System: AMES SALMONELLA TYPHIMURIUM, Strain/Indicator: TA1537, Metabolic Activation: RAT LIVER S-9, PHENOBARBITAL AND BETA-NAPHTHOFLAVONE, Method: PREINCUBATION): inactive; negative; mutagenic call (Test System: AMES SALMONELLA TYPHIMURIUM, Strain/Indicator: TA1537, Metabolic Activation: RAT, LIVER, S-9, AROCLOR 1254 (10%), Method: PREINCUBATION): inactive; negative; mutagenic call (Test System: E.COLI, Strain/Indicator: WP2UVRA/PKM101, Metabolic Activation: NONE, Method: PREINCUBATION): inactive; negative; mutagenic call (Test System: E.COLI, Strain/Indicator: WP2UVRA/PKM101, Metabolic Activation: RAT LIVER S-9, PHENOBARBITAL AND BETA-NAPHTHOFLAVONE, Method: PREINCUBATION): inactive; negative; mutagenic call (Test System: E.COLI, Strain/Indicator: WP2UVRA, Metabolic Activation: NONE, Method: PREINCUBATION): inactive; negative; mutagenic call (Test System: E.COLI, Strain/Indicator: WP2UVRA, Metabolic Activation: RAT LIVER S-9, PHENOBARBITAL AND BETA-NAPHTHOFLAVONE, Method: PREINCUBATION): inactive; negative

Question: How did the mutagenic call [2] turn out when `Cc1cc(=O)oc2c3c(ccc12)C1(C)OOC1(C)O3` (stereo not drawn) was run?
Answer: active; positive

Question: What does the source list for `O=C1C=Cc2c(ccc3ccccc23)C1=O`?
Answer: mutagenic call (Test System: AMES SALMONELLA TYPHIMURIUM, Strain/Indicator: TA97A, Metabolic Activation: NONE, Method: PREINCUBATION): inactive; negative; mutagenic call [1]: inactive; negative; mutagenic call [2]: inactive; negative; mutagenic call [3]: inactive; negative; mutagenic call [4]: active; positive

Question: How did the mutagenic call (Test System: AMES SALMONELLA TYPHIMURIUM, Strain/Indicator: TA97, Metabolic Activation: NONE, Method: STANDARD PLATE) turn out when `CC(=O)Nc1ccc(OC(=O)c2ccccc2OC(C)=O)cc1` was run?
Answer: inactive; negative

Question: And the mutagenic call (Test System: AMES SALMONELLA TYPHIMURIUM, Strain/Indicator: TA97, Metabolic Activation: RAT, LIVER, S-9, AROCLOR 1254, Method: STANDARD PLATE)?
Answer: inactive; negative

Question: What about the mutagenic call [5] of the same molecule?
Answer: inactive; negative

Question: And the mutagenic call (Test System: AMES SALMONELLA TYPHIMURIUM, Strain/Indicator: TA98, Metabolic Activation: RAT, LIVER, S-9, AROCLOR 1254, Method: STANDARD PLATE)?
Answer: inactive; negative

Question: And the mutagenic call [6]?
Answer: inactive; negative

Question: What about the mutagenic call (Test System: AMES SALMONELLA TYPHIMURIUM, Strain/Indicator: TA100, Metabolic Activation: RAT, LIVER, S-9, AROCLOR 1254, Method: STANDARD PLATE) of the same molecule?
Answer: inactive; negative

Question: What about the mutagenic call [7] of the same molecule?
Answer: inactive; negative

Question: And the mutagenic call (Test System: AMES SALMONELLA TYPHIMURIUM, Strain/Indicator: TA1535, Metabolic Activation: RAT, LIVER, S-9, AROCLOR 1254, Method: STANDARD PLATE)?
Answer: inactive; negative

Question: And the mutagenic call [8]?
Answer: inactive; negative

Question: And the mutagenic call (Test System: AMES SALMONELLA TYPHIMURIUM, Strain/Indicator: TA1537, Metabolic Activation: RAT, LIVER, S-9, AROCLOR 1254, Method: STANDARD PLATE)?
Answer: inactive; negative

Question: What about the mutagenic call [9] of the same molecule?
Answer: inactive; negative

Question: And the mutagenic call (Test System: AMES SALMONELLA TYPHIMURIUM, Strain/Indicator: TA1538, Metabolic Activation: RAT, LIVER, S-9, AROCLOR 1254, Method: STANDARD PLATE)?
Answer: inactive; negative

Question: Which mutagenic call (Test System: UDS RODENT HEPATOCYTES, Strain/Indicator: THY INCORP (NON-S-PHASE), Metabolic Activation: NONE, Method: AUTORADIOGRAPHY) does the source give for `CNc1ccc(Cl)cc1` here?
Answer: active; positive

Question: Which mutagenic call [2] does the source give for `Cc1cc2c3c(ccc2c2ccccc12)C(O)C(O)[C@@H]1O[C@@H]31` (stereo partly drawn) here?
Answer: inactive; negative

Question: For `O=[N+]([O-])c1ccc(-c2nc3sccn3c2[N+](=O)[O-])cc1`, which mutagenic call [5] is on record?
Answer: active; positive

Question: And the mutagenic call [6]?
Answer: active; positive

Question: And the mutagenic call [7]?
Answer: inactive; negative

Question: And the mutagenic call [8]?
Answer: active; positive

Question: What about the mutagenic call [9] of the same molecule?
Answer: active; positive

Question: With `CC(C)COC(=O)NO` as the molecule, how does the mutagenic call (Test System: E. COLI, Strain/Indicator: WP2 UVRA, Metabolic Activation: NONE, Method: FLUCTUATION TEST) read?
Answer: active; positive

Question: For `Cn1c2ccccc2c(=O)c2c(O)cc3c(c21)CC(C1(C)CO1)O3` (stereo not drawn), which mutagenic call [5] is on record?
Answer: active; positive

Question: What about the mutagenic call (Test System: AMES SALMONELLA TYPHIMURIUM, Strain/Indicator: TA98, Metabolic Activation: RAT, LIVER, S-9, 3-METHYLCHOLANTHRENE, Method: STANDARD PLATE) of the same molecule?
Answer: active; positive

Question: And the mutagenic call (Test System: AMES SALMONELLA TYPHIMURIUM, Strain/Indicator: TA98, Metabolic Activation: RAT, LIVER, S-9, PHENOBARBITAL, Method: STANDARD PLATE)?
Answer: active; positive

Question: And the mutagenic call (Test System: AMES SALMONELLA TYPHIMURIUM, Strain/Indicator: TA98, Metabolic Activation: RAT, LIVER, S-9, Method: STANDARD PLATE)?
Answer: active; positive

Question: And the mutagenic call [6]?
Answer: active; positive

Question: What about the mutagenic call (Test System: AMES SALMONELLA TYPHIMURIUM, Strain/Indicator: TA100, Metabolic Activation: RAT, LIVER, S-9, 3-METHYLCHOLANTHRENE, Method: STANDARD PLATE) of the same molecule?
Answer: active; positive

Question: What about the mutagenic call (Test System: AMES SALMONELLA TYPHIMURIUM, Strain/Indicator: TA100, Metabolic Activation: RAT, LIVER, S-9, PHENOBARBITAL, Method: STANDARD PLATE) of the same molecule?
Answer: active; positive

Question: What about the mutagenic call (Test System: AMES SALMONELLA TYPHIMURIUM, Strain/Indicator: TA100, Metabolic Activation: RAT, LIVER, S-9, Method: STANDARD PLATE) of the same molecule?
Answer: active; positive
